Assay results from patent US6403534B1, “Uracil compounds and use thereof” (Sumitomo Chemical Company, Limited, priority 2000, dated 2002).

Columns and labels:
barnyardgrass [1] = experiment: Test Example 1: foliar treatment of field; format: in vivo, Echinochloa crus-galli; conditions: foliar spray, 125 g/ha, plants grown 14 days before, examined 16 days after application
Experimental: (§1) Test for Foliar Treatment of Field
(§2) A cylindrical plastic pot having a diameter of 10 cm and a depth of 10 cm was filled with soil and then seeded with barnyardgrass, blackgrass, ivyleaf morningglory and velvetleaf These test plants were grown in a greenhouse for 14 days. Then, each of compounds 1-2, 1-3, 1-7, 1-19 and 1-28 was formulated into an emulsifiable concentrate according to Formulation Example 2 and then diluted to the prescribed amount with water containing a spreading agent and the dilution was uniformly sprayed over the foliage of the test plants with a sprayer at a rate of 1000 liters per hectare. After the application, the test plants were grown in the greenhouse for 16 days, and the herbicidal activity was determined.

blackgrass [2] = experiment: Test Example 1: foliar treatment of field; format: in vivo, Alopecurus myosuroides; conditions: foliar spray, 125 g/ha, plants grown 14 days before, examined 16 days after application
Experimental: as §1, §2

barnyardgrass [3] = experiment: Test Example 4: soil surface treatment of field; format: in vivo, Echinochloa crus-galli; parameters: key: “0” means that there was no or little difference in the degree of germination or growth between the treated and the untreated tested plants at the time of examination; “10” means that the test plants died completely or their germination or growth was completely inhibited; conditions: index 0 to 10, 12 days after application
Excerpt: (§3) Test for Soil Surface Treatment of Field A plastic pot having an area of (26.5×19) cm^2 and a depth of 7 cm was filled with soil and then seeded with ivyleaf morningglory, velvetleaf, barnyardgrass and giant foxtail. Then, each of the test compounds was formulated into an emulsifiable concentrate according to Formulation Example 2 and then diluted to the prescribed amount with water, and the dilution was uniformly sprayed over the surface of the soil with a sprayer at a rate of 1000 liters per hectare. After the application, the test plants were grown in the greenhouse for 12 days, and the herbicidal activity was examined. The herbicidal activity was evaluated by the same method as in Test Example 3.

velvetleaf [4] = experiment: Test Example 2: soil surface treatment of field; format: in vivo, Abutilon theophrasti; conditions: soil surface spray, 500 g/ha, examined 19 days after application
Excerpt: (§4) Test for Soil Surface Treatment of Field
(§5) A cylindrical plastic pot having a diameter of 10 cm and a depth of 10 cm was filled with soil and then seeded with barnyardgrass, blackgrass, ivyleaf morningglory and velvetleaf. Then, each of compounds 1-2, 1-3, 1-7, 1-19 and 1-28 was formulated into an emulsifiable concentrate according to Formulation Example 2 and then diluted to the prescribed amount with water, and the dilution was uniformly sprayed over the surface of the soil with a sprayer at a rate of 1000 liters per hectare. After the application, the test plants were grown in the greenhouse for 19 days, and the herbicidal activity was examined.

velvetleaf [5] = experiment: Test Example 1: foliar treatment of field; format: in vivo, Abutilon theophrasti; conditions: foliar spray, 125 g/ha, plants grown 14 days before, examined 16 days after application
Experimental: as §1, §2

velvetleaf [6] = experiment: Test Example 4: soil surface treatment of field; format: in vivo, Abutilon theophrasti; parameters: key: “0” means that there was no or little difference in the degree of germination or growth between the treated and the untreated tested plants at the time of examination; “10” means that the test plants died completely or their germination or growth was completely inhibited; conditions: index 0 to 10, 12 days after application
Excerpt: as §3

ivyleaf morningglory [7] = experiment: Test Example 1: foliar treatment of field; format: in vivo, Ipomoea hederacea; conditions: foliar spray, 125 g/ha, plants grown 14 days before, examined 16 days after application
Experimental: as §1, §2

ivyleaf morningglory [8] = experiment: Test Example 2: soil surface treatment of field; format: in vivo, Ipomoea hederacea; conditions: soil surface spray, 500 g/ha, examined 19 days after application
Excerpt: as §4, §5

barnyardgrass [9] = experiment: Test Example 2: soil surface treatment of field; format: in vivo, Echinochloa crus-galli; conditions: soil surface spray, 500 g/ha, examined 19 days after application
Excerpt: as §4, §5

blackgrass [10] = experiment: Test Example 3: foliar treatment of field; format: in vivo, Alopecurus myosuroides; parameters: key: “0” means that there was no or little difference in the degree of germination or growth between the treated and the untreated tested plants at the time of examination; “10” means that the test plants died completely or their germination or growth was completely inhibited; conditions: index 0 to 10, 16 days after application
Experimental: (§6) Test for Foliar Treatment of Field A cylindrical plastic pot having a diameter of 10 cm and a depth of 10 cm was filled with soil and then seeded with ivyleaf morningglory and blackgrass. These test plants were grown in a greenhouse for 10 days. Then, each of the test compounds was formulated into an emulsifiable concentrate according to Formulation Example 2 and then diluted to the prescribed amount with water containing a spreading agent and the dilution was uniformly sprayed over the foliage of the test plants with a sprayer at a rate of 1000 liters per hectare. After the application, the test plants were grown in the greenhouse for 16 days, and the herbicidal activity was examined.

ivyleaf morningglory [11] = experiment: Test Example 4: soil surface treatment of field; format: in vivo, Ipomoea hederacea; parameters: key: “0” means that there was no or little difference in the degree of germination or growth between the treated and the untreated tested plants at the time of examination; “10” means that the test plants died completely or their germination or growth was completely inhibited; conditions: index 0 to 10, 12 days after application
Excerpt: as §3

blackgrass [12] = experiment: Test Example 2: soil surface treatment of field; format: in vivo, Alopecurus myosuroides; conditions: soil surface spray, 500 g/ha, examined 19 days after application
Excerpt: as §4, §5

ivyleaf morningglory [13] = experiment: Test Example 3: foliar treatment of field; format: in vivo, Ipomoea hederacea; parameters: key: “0” means that there was no or little difference in the degree of germination or growth between the treated and the untreated tested plants at the time of examination; “10” means that the test plants died completely or their germination or growth was completely inhibited; conditions: index 0 to 10, 16 days after application
Experimental: as §6

giant foxtail = experiment: Test Example 4: soil surface treatment of field; format: in vivo, Setaria faberi; parameters: key: “0” means that there was no or little difference in the degree of germination or growth between the treated and the untreated tested plants at the time of examination; “10” means that the test plants died completely or their germination or growth was completely inhibited; conditions: index 0 to 10, 12 days after application
Excerpt: as §3

Row | SMILES | herbicidal activity (growth of barnyardgrass) (barnyardgrass [1]) | herbicidal activity (growth of blackgrass) (blackgrass [2]) | Herbicidal activity Barnyard grass (barnyardgrass [3]; dosage 32 g/ha) | Herbicidal activity Barnyard grass (barnyardgrass [3]; dosage 125 g/ha) | Herbicidal activity Barnyard grass (barnyardgrass [3]; dosage 500 g/ha) | herbicidal activity (germination of velvetleaf) (velvetleaf [4]) | herbicidal activity (growth of velvetleaf) (velvetleaf [5]) | Herbicidal activity Velvet leaf (velvetleaf [6]; dosage 32 g/ha) | Herbicidal activity Velvet leaf (velvetleaf [6]; dosage 125 g/ha) | Herbicidal activity Velvet leaf (velvetleaf [6]; dosage 500 g/ha) | herbicidal activity (growth of ivyleaf morningglory) (ivyleaf morningglory [7]) | herbicidal activity (germination of ivyleaf morningglory) (ivyleaf morningglory [8]) | herbicidal activity (germination of barnyardgrass) (barnyardgrass [9]) | Herbicidal activity Blackgrass (blackgrass [10]; dosage 8 g/ha) | Herbicidal activity Blackgrass (blackgrass [10]; dosage 32 g/ha) | Herbicidal activity Blackgrass (blackgrass [10]; dosage 125 g/ha) | Herbicidal activity Ivyleaf morningglory (ivyleaf morningglory [11]; dosage 32 g/ha) | Herbicidal activity Ivyleaf morningglory (ivyleaf morningglory [11]; dosage 125 g/ha) | Herbicidal activity Ivyleaf morningglory (ivyleaf morningglory [11]; dosage 500 g/ha) | herbicidal activity (germination of blackgrass) (blackgrass [12]) | also measured
1 | C=CCOC(=O)C1(Oc2cc(-n3c(=O)cc(C(F)(F)F)n(C)c3=O)c(F)cc2Cl)CC1 [Compound 1-7] | completely controlled | completely controlled | 6 | 10 | 10 | completely controlled | completely controlled | 10 | 10 | 10 | completely controlled | completely controlled | completely controlled | 5 | 6 | 10 | 2 | 10 | 10 | completely controlled | Herbicidal activity Ivyleaf morningglory (ivyleaf morningglory [13]; dosage 8 g/ha): 10; Herbicidal activity Ivyleaf morningglory (ivyleaf morningglory [13]; dosage 32 g/ha): 10; Herbicidal activity Ivyleaf morningglory (ivyleaf morningglory [13]; dosage 125 g/ha): 10; Herbicidal activity Giant foxtail (giant foxtail; dosage 32 g/ha): 10; Herbicidal activity Giant foxtail (giant foxtail; dosage 125 g/ha): 10; Herbicidal activity Giant foxtail (giant foxtail; dosage 500 g/ha): 10
2 | COC(=O)C(CC(C)C)NC(=O)C1(Oc2cc(-n3c(=O)cc(C(F)(F)F)n(C)c3=O)c(F)cc2Cl)CC1 (stereo not shown) [Compound 1-28] | completely controlled | completely controlled | – | – | – | completely controlled | completely controlled | – | – | – | completely controlled | completely controlled | completely controlled | – | – | – | – | – | – | completely controlled | –
3 | COC(=O)C1(Oc2cc(-n3c(=O)cc(C(F)(F)F)n(C)c3=O)c(F)cc2Cl)CC1 [Compound 1-2, methyl 1-[2-chloro-4-fluoro-5-{3-methyl-2,6-dioxo-4-(trifluoro-methyl)-1,2,3,6-tetrahydropyrimidin-1-yl}phenoxy]cyclo-propanecarboxylate] | completely controlled | completely controlled | – | – | – | completely controlled | completely controlled | – | – | – | completely controlled | completely controlled | completely controlled | – | – | – | – | – | – | completely controlled | –
4 | CCOC(=O)C1(Oc2cc(-n3c(=O)cc(C(F)(F)F)n(C)c3=O)c(F)cc2Cl)CC1 [Compound 1-3, ethyl 1-[2-chloro-4-fluoro-5-{3-methyl-2,6-dioxo-4-(trifluoromethyl)-1,2,3,6-tetrahydropyrimidin-1-yl}phenoxy]cyclopropanecarboxylate] | completely controlled | completely controlled | – | – | – | completely controlled | completely controlled | – | – | – | completely controlled | completely controlled | completely controlled | – | – | – | – | – | – | completely controlled | –
5 | C=CCOC(=O)C(C)(C)Oc1cc(-n2c(=O)cc(C(F)(F)F)n(C)c2=O)c(F)cc1Cl [Comparative compound A, reference compound] | – | – | 1 | 7 | 10 | – | – | 3 | 10 | 10 | – | – | – | 3 | 4 | 6 | 0 | 4 | 8 | – | Herbicidal activity Ivyleaf morningglory (ivyleaf morningglory [13]; dosage 8 g/ha): 7; Herbicidal activity Ivyleaf morningglory (ivyleaf morningglory [13]; dosage 32 g/ha): 10; Herbicidal activity Ivyleaf morningglory (ivyleaf morningglory [13]; dosage 125 g/ha): 10; Herbicidal activity Giant foxtail (giant foxtail; dosage 32 g/ha): 4; Herbicidal activity Giant foxtail (giant foxtail; dosage 125 g/ha): 10; Herbicidal activity Giant foxtail (giant foxtail; dosage 500 g/ha): 10
6 | CSC(=O)C1(Oc2cc(-n3c(=O)cc(C(F)(F)F)n(C)c3=O)c(F)cc2Cl)CC1 [Compound 1-19] | completely controlled | completely controlled | – | – | – | completely controlled | completely controlled | – | – | – | completely controlled | completely controlled | completely controlled | – | – | – | – | – | – | completely controlled | –
